These results are taken from ChEMBL document CHEMBL4627315, “Promising antifungal agents: A minireview” (2020).

Usually MIC stands for the lowest concentration that inhibits growth of the organism.

In one assay the test system is Saccharomyces cerevisiae. As to the kind of experiment: Antifungal activity against Saccharomyces cerevisiae. The assay is classed as functional.
The subject of another assay is Fusarium graminearum. Briefly: Antifungal activity against Fusarium graminearum. The assay is classed as functional.
In another assay the test system is Cryptococcus neoformans. Briefly: Antifungal activity against Cryptococcus neoformans. The assay is classed as functional.
Assay [1] relates to Aspergillus niger. As to the kind of experiment: Antifungal activity against Aspergillus niger assessed as zone of inhibition by serial dilution and disc diffusion method. The assay is classed as functional. (In agar diffusion tests the substance spreads into inoculated agar from a disc or well.)
The subject of assay [2] is Aspergillus niger. Briefly: Potency index, ratio of Amphotericin B IZ to test compound IZ for Aspergillus niger assessed as zone of inhibition by serial dilution and disc diffusion method. Format: functional.
Assay [3] deals with Aspergillus flavus. As to the kind of experiment: Antifungal activity against Aspergillus flavus assessed as zone of inhibition by serial dilution and disc diffusion method. The assay is classed as functional.
The subject of assay [4] is Candida albicans. Briefly: Potency index, ratio of Amphotericin B IZ to test compound IZ for Candida albicans assessed as zone of inhibition by serial dilution and disc diffusion method. The assay is classed as functional.
Assay [5] concerns Candida albicans. Briefly: Antifungal activity against Candida albicans assessed as zone of inhibition by serial dilution and disc diffusion method. The assay is classed as functional.
The subject of assay [6] is Rhizopus. Briefly: Antifungal activity against Rhizopus assessed as zone of inhibition by serial dilution and disc diffusion method. The assay is classed as functional.
Assay [7] concerns Aspergillus flavus. As to the kind of experiment: Potency index, ratio of Amphotericin B IZ to test compound IZ for Aspergillus flavus assessed as zone of inhibition by serial dilution and disc diffusion method. Format: functional.
Assay [8] deals with Rhizopus. Briefly: Potency index, ratio of Amphotericin B IZ to test compound IZ for Rhizopus assessed as zone of inhibition by serial dilution and disc diffusion method. The assay is classed as functional.
Assay [9] has as its system Candida albicans. Briefly: Antifungal activity against Candida albicans assessed as zone of inhibition at 25 to 100 ug/ml. Format: functional.
In another assay the test system is Cryptococcus gattii. As to the kind of experiment: Antifungal activity against Cryptococcus gattii. The assay is classed as functional, Cryptococcus gattii VGI.

Values after ≈ are worked out from the molar mass of the structure shown.

For the compound `CCCCCCCCO[C@H]1[C@H](N)[C@@H](O)[C@@H](O[C@@H]2[C@@H](O)[C@H](O[C@H]3O[C@H](CN)[C@@H](O)[C@H](O)[C@H]3N)[C@@H](N)C[C@H]2N)O[C@@H]1C`, the minimal inhibitory concentration (MIC) against Saccharomyces cerevisiae was 4 to 31.3 µg/mL (≈ 6.9 to 54 µM); against Fusarium graminearum it was 7.8 µg/mL (≈ 13.5 µM); against Cryptococcus neoformans, 3.9 to 7.8 µg/mL (≈ 6.73 to 13.5 µM).

For the compound `Cc1nc(-c2ccc(F)c(Br)c2)n(CCN2CCNCC2)c1C`, the “inhibition zone (IZ)” value in the assay with Aspergillus niger [1], in the assay with Aspergillus flavus [3], in the assay on Candida albicans [5] and in the assay on Rhizopus [6] was 18 - 21 mm each time. Besides, the Ratio with Aspergillus niger [2], with Candida albicans [4], with Aspergillus flavus [7] and in the assay on Rhizopus [8] was 1.5 - 2 each time.

As for `Cc1nc(-c2ccc(Cl)cc2)n(CCN2CCNCC2)c1C`, the “inhibition zone (IZ)” value with Aspergillus niger [1], in the assay with Aspergillus flavus [3], in the assay with Candida albicans [5] and in the assay on Rhizopus [6] was 16 - 20 mm each time. The Ratio in the assay with Aspergillus niger [2], in the assay with Candida albicans [4], in the assay on Aspergillus flavus [7] and with Rhizopus [8] was 1.5 - 2 in each case.

On to `Cc1nc(-c2cccs2)n(CCN2CCNCC2)c1C`, for which the “inhibition zone (IZ)” value with Aspergillus niger [1], in the assay on Aspergillus flavus [3], in the assay with Candida albicans [5] and in the assay on Rhizopus [6] was 16 - 200 mm throughout.

As for `Cc1nc(-c2ccc(F)cc2)n(CCN2CCNCC2)c1C`, the “inhibition zone (IZ)” value with Aspergillus niger [1], in the assay on Aspergillus flavus [3], with Candida albicans [5] and in the assay with Rhizopus [6] was 16 - 22 mm each time. The Ratio with Aspergillus niger [2], in the assay on Candida albicans [4], in the assay with Aspergillus flavus [7] and in the assay on Rhizopus [8] was 1.5 - 2 in each case.

With `C[C@@H]1[C@H](O)[C@@H](C)/C=C/C=C/C=C/C=C/C=C/C=C/C=C/[C@H](O[C@@H]2O[C@H](C)[C@@H](O)[C@H](N)[C@@H]2O)C[C@@H]2O[C@](O)(C[C@@H](O)C[C@@H](O)[C@H](O)CC[C@@H](O)C[C@@H](O)CC(=O)O[C@H]1C)C[C@H](O)[C@H]2C(=O)O` [AMPHOTERICIN B], the “inhibition zone (IZ)” value with Aspergillus niger [1], with Aspergillus flavus [3], with Candida albicans [5] and in the assay on Rhizopus [6] was 11 - 14 mm in each case.

Turning to `OC(Cn1cncn1)(Cn1cncn1)c1ccc(F)cc1F` [FLUCONAZOLE], the “inhibition zone (IZ)” value with Candida albicans [9] was 2.6 - 2.8 cm.

In the case of `C/C(=C(/OCCOc1ccc(Cl)cc1)c1ccc(Cl)cc1Cl)n1ccnc1` [OMOCONAZOLE], the minimum inhibitory concentration (MIC) with Cryptococcus gattii is at most 4 µg/mL.

For the compound `Clc1ccc(CO/N=C(\Cn2ccnc2)c2ccc(Cl)cc2Cl)c(Cl)c1` [OXICONAZOLE], the MIC with Cryptococcus gattii was at most 4 µg/mL.
